{
  "source": "patent US10758499B2",
  "about": "“Dermatitis treatment” (Avexxin AS, priority 2012, dated 2020)",
  "key": {"[1]": {"target": "T1, group IVa PLA2 enzyme (Mus musculus, UniProt P47713)", "T1 construct": "the right ear biopsies were homogenized in 400 μl lysisbuffer; from tissue; host or cells: mouse ear tissue (in vivo treatment, ear biopsies homogenised)", "T1 sequence (P47713 1-748)": "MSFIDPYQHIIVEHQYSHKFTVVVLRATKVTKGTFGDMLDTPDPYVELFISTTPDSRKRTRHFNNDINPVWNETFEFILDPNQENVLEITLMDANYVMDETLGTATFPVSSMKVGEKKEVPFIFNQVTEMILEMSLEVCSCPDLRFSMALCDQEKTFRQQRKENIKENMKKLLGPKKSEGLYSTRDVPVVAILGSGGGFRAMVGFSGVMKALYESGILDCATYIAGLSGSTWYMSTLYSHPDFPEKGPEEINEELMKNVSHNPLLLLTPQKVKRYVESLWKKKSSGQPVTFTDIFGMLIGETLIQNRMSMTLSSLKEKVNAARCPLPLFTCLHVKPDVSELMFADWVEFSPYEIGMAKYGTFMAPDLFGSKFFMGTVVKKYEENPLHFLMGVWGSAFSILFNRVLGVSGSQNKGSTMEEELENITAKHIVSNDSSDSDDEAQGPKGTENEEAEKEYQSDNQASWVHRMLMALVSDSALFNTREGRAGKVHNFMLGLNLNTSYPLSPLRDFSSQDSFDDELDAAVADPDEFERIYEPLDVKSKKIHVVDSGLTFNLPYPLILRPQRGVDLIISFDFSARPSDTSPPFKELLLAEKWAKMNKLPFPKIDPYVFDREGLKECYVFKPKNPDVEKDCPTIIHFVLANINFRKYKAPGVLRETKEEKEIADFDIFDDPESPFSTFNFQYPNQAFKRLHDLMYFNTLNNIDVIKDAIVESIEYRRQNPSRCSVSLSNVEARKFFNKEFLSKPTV", "test": "PGE2 EIA analysis of ear tissue homogenates after treatment", "format": "in vivo, mice", "conditions": "treated versus paraffin placebo ear tissue, right ear biopsies", "protocol": "Using a PreCellys homogenisator, the right ear biopsies were homogenized in 400 μl lysisbuffer containing 10 μM indomethasin. The lysate was stored at −80° C. until further processing. PGE2 EIA analysis ear homogenates was performed according to kit protocol (Cayman Chemicals). Plasma samples were diluted 1:60 and 1:180 in EIA buffer. The samples were hybridized over-night (18 hrs, 4° C.). The EIA plates were read using a Multiscan plate reader (Ascent Labsystems, OD550 nm). Ascent software for Multiscan, Version 2.4.1 was used to obtain the data. PGE2 results are shown as mean±SD relative to the paraffin-treated placebo mice (n=5 mice).\nData of groups was examined by one-way analysis of variance, and individual groups were then compared with Dunnets test or Students t-test. Data was given as mean±SD, if not stated otherwise. Values of p<0.05 were considered significant."}, "[2]": {"tested_on": "oxazolone-induced delayed-type-hypersensitivity (DTH) responses", "test": "oxazolone-induced ear edema model (delayed-type-hypersensitivity) in mice, therapeutic topical treatment", "format": "in vivo, mice (female BALB/c)", "conditions": "for Relative oxazolone specific ear swelling, average: topical 1 h and 7 h after challenge, 24 h after challenge, placebo 95%; for Absolute oxazolone specific ear swelling, average: topical on right ear 1 h and 7 h after challenge, measured 24 h after challenge, placebo 217 μm", "protocol": "DTH can be induced by skin sensitization with oxazolone, followed by a topical ear challenge with oxazolone 7 days later. This challenge results in development of an inflammatory response in the ear within 24 hours, which is dependent on antigen-specific T cells. The DTH reaction is associated with the recruitment of a variety of inflammatory cells and development of edema. The latter can be measured by quantifying changes in ear thickness before and after ear challenge. The oxazolone-induced ear edema model in mice is therefore a model of delayed contact hypersensitivity that permits the quantitative evaluation of the topical and systemic anti-inflammatory activity of a compound following topical administration. Female mice (6-8 wks—BALB/c) were acclimatization for 7 days in 12 hours light/12 hours dark cycle, at Temperature: 20-24° C., humidity: 55%±10%, on a standard laboratory mouse diet. Day 0: Mice were anesthetized by inhalation of 3-4% isoflurane in a 1:1 mixture of oxygen and medical air. The abdominal skin was shaved to enable topical application of 100 μl 1.5% (w/v) oxazolone in 100% acetone. Day 7: All ears were wiped with ethanol to optimize exposure to oxazolone. Subsequently, the right ear of the sensitized animals were challenged by topical administration of 20 μl (10 μl on each side of the ear) 2.5% (w/v) oxazolone in 100% ethanol. The left ears were treated with 20 μl 100% ethanol. Day 8: After 24 hours, mice were sacrificed and the right ears were collected to enable analysis by (immuno)-histochemistry and/or histology. The vehicle used to carry AVX001 was paraffin. The placebo was paraffin. Approx 20 μl (10 μl on each side of the right ear) of composition is applied to effect the test. 4 groups (8 mice per group) were studied. Group 1: Placebo, 1 hour and 7 hours after challenge Group 2: Compound 0.2 wt %, 1 hour and 7 hours after challenge Group 3: Compound 0.05 wt %, 1 hour and 7 hours after challenge Group 4: Compound 0.01 wt %, 1 hour and 7 hours after challenge Day 7: Ear thickness of both ears was measured directly before the ear-challenge (5 measurements per ear) using a Mitutoyo micrometer (accuracy 0.01 mm). Day 8: 24 Hours after challenge, thickness of left and right ears was measured again. The increase in ear thickness of each ear was calculated by subtracting the mean ear thickness measured on day 7 (before challenge) from the thickness on day 8 (24 hrs after challenge). To determine the oxazolone specific increase in ear thickness, the calculated increase in ear thickness of the left ear was subtracted from that of the right ear. Both absolute (Delta μm) and relative (%) increases in ear thickness were calculated. Increase in ear thickness (Delta μm): Thickness day 8 (μm)−Thickness day 7 (μm) Oxazolone specific increase (Delta μm): Increase right ear (Delta μm)−Increase left ear (Delta μm) Relative increase in ear thickness (%): (Increase in ear thickness (Delta μm)/Thickness day 7 (μm))*100% Relative oxazolone specific increase in ear thickness (%): Relative increase right ear (%)−Relative increase left ear (%) Data of groups was examined by one-way analysis of variance, and individual groups were then compared with Dunnets test or Students t-test. Data was given as mean±SD, if not stated otherwise. Values of p<0.05 were considered significant."}},
  "data": [
    {"smiles": "CC/C=C\\C/C=C\\C/C=C\\C/C=C\\CC/C=C/CSCC(=O)C(F)(F)F", "note": "[AVX001]", "values": [
      {"measurement": "reduction in ear tissue PGE2 concentration", "setting": "[1]", "value": 20, "unit": "%"},
      {"measurement": "Relative oxazolone specific ear swelling, average", "setting": "[2]; AVX001 0.01% in paraffin", "value": 58, "unit": "%"},
      {"measurement": "Absolute oxazolone specific ear swelling, average", "setting": "[2]; AVX001 0.01% in paraffin", "value": 134, "unit": "μm"},
      {"measurement": "Relative oxazolone specific ear swelling, average", "setting": "[2]; AVX001 0.05% in paraffin", "value": 43, "unit": "%"},
      {"measurement": "Absolute oxazolone specific ear swelling, average", "setting": "[2]; AVX001 0.05% in paraffin", "value": 103, "unit": "μm"},
      {"measurement": "Relative oxazolone specific ear swelling, average", "setting": "[2]; AVX001 0.2% in paraffin", "value": 42, "unit": "%"},
      {"measurement": "Absolute oxazolone specific ear swelling, average", "setting": "[2]; AVX001 0.2% in paraffin", "value": 94, "unit": "μm"},
      {"measurement": "reduction of the oxazolone specific ear swelling (result in words)", "setting": "[2]; all concentrations (0.01%, 0.05%, 0.2%), topical, versus placebo", "value": "statistically significant for all concentrations"}
    ]}
  ]
}
